No end group written: not given here.

This is an account of results in paper PMC4319847 (PLoS ONE, 2015).

This experiment addresses T1, ΔIBB-h-importin-α1 (Homo sapiens, UniProt P52292, DEL11-54).
T1 construct: IBB domain-truncated h-importin-α1 (Δ-h-importin-α1) (1–10, 55–529); GST (N, cleaved yes); His6 (C); made in house; host or cells: E. coli BL21 (DE3) Codonplus-RIL
The experiment in a line: ITC binding of NLS peptides to ΔIBB-h-importin-α1.

Consider KRPAATKKAGQAKKKK [nucleoplasmin NLS], for which binding was put at a Kd of 0.14 ± 0.05 µM.
